Assay results: PubChem BioAssay AID330 (DTP/NCI, 2004)
Several values for one entry are separate records, joined by “and”; a condition that tells them apart may be missing. Equal entries are not always repeated. Toxic doses and inconclusive results are not listed.

Tested on: P388 leukemia ip, CD2F1 mice, survival T/C
Experiment: NCI In Vivo Anticancer Drug Screen. Data for tumor model P388 Leukemia (intraperitoneal) in CD2F1 (CDF1) mice
Settings: endpoint: median survival time, higher = longer survival
Procedure, shortened: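 Mice carrying the transplanted tumor received test compound or vehicle. Survival was recorded in each group, and the value is the treated-group measurement divided by that of the vehicle-treated control group.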

[1] = dose: 50.0 mg/kg/injection, schedule: Q01DX009 (ip), vehicle: Klucel (hydroxypropylcellulose) (HPC)
[2] = dose: 100.0 mg/kg/injection, schedule: Q01DX009 (ip), vehicle: Klucel (hydroxypropylcellulose) (HPC)
[3] = dose: 200.0 mg/kg/injection, schedule: Q01DX009 (ip), vehicle: Klucel (hydroxypropylcellulose) (HPC)
[4] = dose: 60.0 mg/kg/injection, schedule: Q01DX005 (ip), vehicle: saline with Tween-80
[5] = dose: 120.0 mg/kg/injection, schedule: Q01DX005 (ip), vehicle: saline with Tween-80
[6] = dose: 240.0 mg/kg/injection, schedule: Q01DX005 (ip), vehicle: saline with Tween-80
[7] = dose: 50.0 mg/kg/injection, schedule: Q01DX005 (ip), vehicle: Klucel (hydroxypropylcellulose) (HPC)
[8] = dose: 100.0 mg/kg/injection, schedule: Q01DX005 (ip), vehicle: Klucel (hydroxypropylcellulose) (HPC)
[9] = dose: 200.0 mg/kg/injection, schedule: Q01DX005 (ip), vehicle: Klucel (hydroxypropylcellulose) (HPC)
[10] = dose: 50.0 mg/kg/injection, schedule: Q01DX009 (ip), vehicle: saline with Tween-80
[11] = dose: 100.0 mg/kg/injection, schedule: Q01DX009 (ip), vehicle: saline with Tween-80
[12] = dose: 200.0 mg/kg/injection, schedule: Q01DX009 (ip), vehicle: saline with Tween-80
[13] = dose: 25.0 mg/kg/injection, schedule: Q01DX009 (ip), vehicle: saline
[14] = dose: 50.0 mg/kg/injection, schedule: Q01DX009 (ip), vehicle: saline
[15] = dose: 100.0 mg/kg/injection, schedule: Q01DX009 (ip), vehicle: saline

`COc1ccc2c(c1)CCc1nc3n(c1-2)C(O)(c1ccccc1)C(CC(=O)O)S3` (centres undefined) was tested, and the T/C [1] was 94 % of control, the T/C [2] was 105 % of control and the T/C [3] was 103 % of control.

With `COc1cc(C(c2cc3c(cc2OC(C)=O)OCO3)C(C(C)=O)C(C)=O)cc(OC)c1OC` (centres undefined) the T/C [4] was 106 % of control, the T/C [5] was 98 % of control and the T/C [6] was 121 % of control.

For `CCOC(=O)/N=[N+](\[O-])c1cccc(Br)c1`, the T/C (dose: 100.0 mg/kg/injection, schedule: Q01DX001 (ip), vehicle: Klucel (hydroxypropylcellulose) (HPC)) was 101 % of control.

`O=C1NC(c2ccccc2Cl)Nc2ccccc21` (centres undefined) was tested, and the T/C [1] was 94 % of control, the T/C [2] was 92 % of control and the T/C [3] was 95 % of control. For the same molecule, the T/C (dose: 400.0 mg/kg/injection, schedule: Q01DX009 (ip), vehicle: Klucel (hydroxypropylcellulose) (HPC)) was 90 % of control.

With `COC(=O)C1O[C@H]1c1cccc[n+]1[O-]` (mixture of isomers) the T/C (dose: 25.0 mg/kg/injection, schedule: Q01DX005 (ip), vehicle: water) was 102 % of control, the T/C (dose: 50.0 mg/kg/injection, schedule: Q01DX005 (ip), vehicle: water) was 101 % of control and the T/C (dose: 100.0 mg/kg/injection, schedule: Q01DX005 (ip), vehicle: water) was 101 % of control. The T/C (dose: 200.0 mg/kg/injection, schedule: Q01DX005 (ip), vehicle: water) was 103 % of control.

`O=C(NO)/C(CC(=O)c1cccc(O)c1)=N\O` was tested, and the T/C (dose: 60.0 mg/kg/injection, schedule: Q01DX005 (ip), vehicle: saline) was 99 % of control, the T/C (dose: 120.0 mg/kg/injection, schedule: Q01DX005 (ip), vehicle: saline) was 100 % of control and the T/C (dose: 240.0 mg/kg/injection, schedule: Q01DX005 (ip), vehicle: saline) was 105 % of control.

With `COC(=O)/C(C)=C/C1N=C1c1ccccc1` (centres undefined) the T/C (dose: 25.0 mg/kg/injection, schedule: Q01DX001 (ip), vehicle: saline with Tween-80) was 114 % of control, the T/C (dose: 50.0 mg/kg/injection, schedule: Q01DX001 (ip), vehicle: saline with Tween-80) was 118 % of control and the T/C (dose: 100.0 mg/kg/injection, schedule: Q01DX001 (ip), vehicle: saline with Tween-80) was 123 % of control.

In the case of `C=C(C)C12OC1[C@@]1(C)C(=CC2=O)CCC(O)[C@@H]1C` (some centres undefined), the T/C (dose: 20.0 mg/kg/injection, schedule: Q01DX005 (ip), vehicle: saline) is reported as 101 % of control, the T/C (dose: 40.0 mg/kg/injection, schedule: Q01DX005 (ip), vehicle: saline) is reported as 104 % of control and the T/C (dose: 80.0 mg/kg/injection, schedule: Q01DX005 (ip), vehicle: saline) is reported as 100 % of control.

For `OC12CC3CC(CN1)CC(C3)C2`, the T/C [7] was 109 % of control, the T/C [8] was 99 % of control and the T/C [9] was 95 % of control.

`COc1ccc2c(c1)CN(C)c1ccc(OC)cc1CN2C` was tested, and the T/C [4] was 100 % of control, the T/C [5] was 104 % of control and the T/C [6] was 100 % of control.

`COc1ccc(CCNC(=O)c2cc3ccccc3oc2=O)cc1OC` was tested, and the T/C [10] was 94 % of control, the T/C [11] was 96 % of control and the T/C [12] was 97 % of control.

For `Cc1ccccc1N=c1c2cnn(C)c2ncn1-c1ccccc1C`, the T/C [7] was 96 % of control, the T/C [8] was 96 % of control and the T/C [9] was 93 % of control.

In the case of `COc1ccccc1C1COC(c2ccccc2)(c2ccccc2)S1` (centres undefined), the T/C [13] is reported as 108 % of control, the T/C [14] is reported as 108 % of control and the T/C [15] is reported as 108 % of control.

With `O=CNCc1ccc(S(=O)(=O)F)cc1` the T/C (dose: 12.5 mg/kg/injection, schedule: Q01DX009 (ip), vehicle: other) was 93 % of control, the T/C (dose: 25.0 mg/kg/injection, schedule: Q01DX009 (ip), vehicle: other) was 92 % of control and the T/C (dose: 50.0 mg/kg/injection, schedule: Q01DX009 (ip), vehicle: other) was 99 % of control. For the same molecule, the T/C (dose: 100.0 mg/kg/injection, schedule: Q01DX009 (ip), vehicle: other) was 100 % of control.

In the case of `Cc1ccc(N=C2N=C(Nc3ccc(C)cn3)c3ccccc32)nc1`, the T/C [10] is reported as 92 % of control, the T/C [11] is reported as 91 % of control and the T/C [12] is reported as 96 % of control.

With `O=C(CCCCl)CC(O)(C(F)(F)F)C(F)(F)F` the T/C (dose: 100.0 mg/kg/injection, schedule: Q04DX003 (ip), vehicle: saline with Tween-80) was 110 % of control and the T/C (dose: 200.0 mg/kg/injection, schedule: Q04DX003 (ip), vehicle: saline with Tween-80) was 90 % of control.

For `CC(C(=O)N1CCCC1)C(O)c1ccccc1` (centres undefined), the T/C (dose: 50.0 mg/kg/injection, schedule: Q01DX005 (ip), vehicle: saline) was 105 % of control, the T/C (dose: 100.0 mg/kg/injection, schedule: Q01DX005 (ip), vehicle: saline) was 107 % of control and the T/C (dose: 200.0 mg/kg/injection, schedule: Q01DX005 (ip), vehicle: saline) was 98 % of control.

`CN(C)CCC[N+](C)(C)Cc1ccc(C[N+](C)(C)CCC[N+](C)(C)Cc2ccc(CCl)cc2)cc1` was tested, and the T/C (dose: 12.5 mg/kg/injection, schedule: Q01DX009 (ip), vehicle: saline) was 106 % of control and the T/C [13] was 92 % of control.

With `COc1ccc2nc3cc(Cl)ccc3c(NCCCCCCCCNc3c4ccc(Cl)cc4nc4ccc(OC)cc34)c2c1` the T/C (dose: 0.62 mg/kg/injection, schedule: Q01DX009 (ip), vehicle: other) was 101 % of control, the T/C (dose: 1.25 mg/kg/injection, schedule: Q01DX009 (ip), vehicle: other) was 101 % of control and the T/C (dose: 2.5 mg/kg/injection, schedule: Q01DX009 (ip), vehicle: other) was 104 % of control. The T/C (dose: 5.0 mg/kg/injection, schedule: Q01DX009 (ip), vehicle: other) was 100 % of control, the T/C (dose: 10.0 mg/kg/injection, schedule: Q01DX009 (ip), vehicle: other) was 97 % of control and the T/C (dose: 20.0 mg/kg/injection, schedule: Q01DX009 (ip), vehicle: other) was 109 % of control.

`Cc1nc2[nH]c(=O)ccc2c(C)c1N` was tested, and the T/C (dose: 25.0 mg/kg/injection, schedule: Q04DX002 (ip), vehicle: saline with Tween-80) was 103 % of control, the T/C (dose: 50.0 mg/kg/injection, schedule: Q04DX002 (ip), vehicle: saline with Tween-80) was 110 % of control and the T/C (dose: 100.0 mg/kg/injection, schedule: Q04DX002 (ip), vehicle: saline with Tween-80) was 100 % of control.

For `COc1ccccc1C1(O)c2ccccc2C(=O)c2ccccc21`, the T/C [7] was 101 % of control, the T/C [8] was 99 % of control and the T/C [9] was 103 % of control.

`Cc1c[n+]([O-])ccc1Br` was tested, and the T/C (dose: 6.25 mg/kg/injection, schedule: Q01DX009 (ip), vehicle: water) was 99 % of control, the T/C (dose: 12.5 mg/kg/injection, schedule: Q01DX009 (ip), vehicle: water) was 90 % of control and the T/C (dose: 25.0 mg/kg/injection, schedule: Q01DX009 (ip), vehicle: water) was 100 % of control. The T/C (dose: 50.0 mg/kg/injection, schedule: Q01DX009 (ip), vehicle: water) was 101 % of control.

With `O=C(/C=C/c1ccc(Cl)cc1)c1ccccc(=O)c1O` the T/C [7] was 101 % of control and the T/C [8] was 100 % of control.

`CC1=NCCN=C(C)C1[N+](=O)[O-]` was tested, and the T/C [14] was 91 % of control and the T/C [15] was 87 % of control.

`CN1CCC(/C=C/c2ccc(Cl)c(Cl)c2)CN1` (centres undefined) (tested in a mixture with another compound) was tested, and the T/C (dose: 25.0 mg/kg/injection, schedule: Q01DX001 (ip), vehicle: saline) was 100 % of control and 95 % of control, the T/C (dose: 50.0 mg/kg/injection, schedule: Q01DX001 (ip), vehicle: saline) was 100 % of control and the T/C (dose: 100.0 mg/kg/injection, schedule: Q01DX001 (ip), vehicle: saline) was 104 % of control and 93 % of control. For the same molecule, the T/C (dose: 100.0 mg/kg/injection, schedule: Q01DX001 (ip), vehicle: suspension in saline) was 116 % of control.

For `CC1CN=C(c2ccc(NC(=O)c3cccc(C(=O)Nc4ccc(C5=NCC(C)N5)cc4)c3)cc2)N1` (centres undefined), the T/C (dose: 12.0 mg/kg/injection, schedule: Q01DX010 (ip), vehicle: saline) was 118 % of control, the T/C (dose: 18.0 mg/kg/injection, schedule: Q01DX010 (ip), vehicle: saline) was 154 % of control and the T/C (dose: 27.0 mg/kg/injection, schedule: Q01DX010 (ip), vehicle: saline) was 159 % of control. The T/C (dose: 40.0 mg/kg/injection, schedule: Q01DX010 (ip), vehicle: saline) was 172 % of control.

For `O=C(NN1C(=O)CS(=O)(=O)C1c1ccc(F)cc1)c1ccncc1` (centres undefined), the T/C (dose: 50.0 mg/kg/injection, schedule: Q01DX005 (ip), vehicle: saline with Tween-80) was 98 % of control, the T/C (dose: 100.0 mg/kg/injection, schedule: Q01DX005 (ip), vehicle: saline with Tween-80) was 97 % of control and the T/C (dose: 200.0 mg/kg/injection, schedule: Q01DX005 (ip), vehicle: saline with Tween-80) was 88 % of control.
